Assay results reported in PMC5033714 (Neuron, 2016).

Legend:
[1] = target: GluN1-CC/2A receptors (GluN1-N499C+Q686C) (Rattus norvegicus, UniProt P35439+Q00959, N499C/Q686C); type: cell-based; conditions: 100 μM glutamate alone; glycine 300 μM, 7CKA 10 μM, TCN-201 5 μM, MPX-004 10 μM, MPX-007 30 μM
[2] = Solubility-limited maximal concentration in recording solution; type: physicochemical; conditions: extracellular recording solution pH 7.4, DMSO < 0.3%
GluN1/2B-D receptors = type: cell-based
GluN1/2A receptors = GluN1/2A receptors (Rattus norvegicus, UniProt P35439+Q00959); type: cell-based; conditions: for increase of IC50 in 30 μM glycine compared to 3 μM glycine: 100 μM glutamate; for extent of inhibition of GluN1/2A / IC50: activated by 100 μM glutamate plus 3 μM glycine; for IC50: read-out: IC50 for inhibition of GluN1/2A
GluN1/2A receptors, sequence (Q00959 20-1464 limits assumed, other chains not shown): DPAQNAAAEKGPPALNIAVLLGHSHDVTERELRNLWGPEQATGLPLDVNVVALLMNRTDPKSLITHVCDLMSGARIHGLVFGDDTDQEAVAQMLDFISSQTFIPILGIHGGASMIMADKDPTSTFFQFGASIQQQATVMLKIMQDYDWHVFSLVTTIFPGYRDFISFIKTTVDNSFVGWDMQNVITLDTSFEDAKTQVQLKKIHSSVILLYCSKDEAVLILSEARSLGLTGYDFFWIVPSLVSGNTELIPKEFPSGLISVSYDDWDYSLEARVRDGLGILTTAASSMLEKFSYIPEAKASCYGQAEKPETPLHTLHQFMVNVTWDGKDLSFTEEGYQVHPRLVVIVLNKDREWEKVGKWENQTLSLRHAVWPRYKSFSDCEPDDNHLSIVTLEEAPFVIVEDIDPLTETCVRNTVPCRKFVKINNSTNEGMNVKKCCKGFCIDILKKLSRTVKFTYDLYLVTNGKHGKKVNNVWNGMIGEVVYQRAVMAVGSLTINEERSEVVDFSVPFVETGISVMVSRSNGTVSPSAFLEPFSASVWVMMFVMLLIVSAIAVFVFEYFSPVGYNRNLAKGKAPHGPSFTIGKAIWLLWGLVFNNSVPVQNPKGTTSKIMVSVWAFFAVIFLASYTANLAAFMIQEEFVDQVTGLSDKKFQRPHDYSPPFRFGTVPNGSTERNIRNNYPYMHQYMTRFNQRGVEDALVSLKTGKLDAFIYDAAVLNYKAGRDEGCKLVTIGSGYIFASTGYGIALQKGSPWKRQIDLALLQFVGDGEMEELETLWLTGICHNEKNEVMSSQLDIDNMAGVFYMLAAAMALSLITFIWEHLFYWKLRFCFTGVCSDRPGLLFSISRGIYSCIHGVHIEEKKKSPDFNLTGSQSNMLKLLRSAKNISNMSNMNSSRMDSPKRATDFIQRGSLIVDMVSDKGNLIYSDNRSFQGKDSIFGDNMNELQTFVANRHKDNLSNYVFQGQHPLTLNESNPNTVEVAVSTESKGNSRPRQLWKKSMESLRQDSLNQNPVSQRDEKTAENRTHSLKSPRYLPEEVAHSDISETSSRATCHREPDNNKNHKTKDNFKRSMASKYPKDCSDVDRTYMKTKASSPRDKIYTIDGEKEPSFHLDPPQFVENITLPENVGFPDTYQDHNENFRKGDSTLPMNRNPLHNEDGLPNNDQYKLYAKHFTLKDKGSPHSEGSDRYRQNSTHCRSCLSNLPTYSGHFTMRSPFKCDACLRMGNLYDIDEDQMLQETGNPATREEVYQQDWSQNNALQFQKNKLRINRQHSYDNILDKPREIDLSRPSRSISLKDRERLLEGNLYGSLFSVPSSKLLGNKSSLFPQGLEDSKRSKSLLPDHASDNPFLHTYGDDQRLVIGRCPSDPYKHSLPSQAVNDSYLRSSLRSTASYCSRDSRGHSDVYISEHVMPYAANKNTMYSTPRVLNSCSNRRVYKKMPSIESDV

GluN1/2B receptors = GluN1/2B receptors (Rattus norvegicus, UniProt P35439+Q00960); type: cell-based
GluN1/2B receptors, sequence (Q00960 27-1482, other chains not shown): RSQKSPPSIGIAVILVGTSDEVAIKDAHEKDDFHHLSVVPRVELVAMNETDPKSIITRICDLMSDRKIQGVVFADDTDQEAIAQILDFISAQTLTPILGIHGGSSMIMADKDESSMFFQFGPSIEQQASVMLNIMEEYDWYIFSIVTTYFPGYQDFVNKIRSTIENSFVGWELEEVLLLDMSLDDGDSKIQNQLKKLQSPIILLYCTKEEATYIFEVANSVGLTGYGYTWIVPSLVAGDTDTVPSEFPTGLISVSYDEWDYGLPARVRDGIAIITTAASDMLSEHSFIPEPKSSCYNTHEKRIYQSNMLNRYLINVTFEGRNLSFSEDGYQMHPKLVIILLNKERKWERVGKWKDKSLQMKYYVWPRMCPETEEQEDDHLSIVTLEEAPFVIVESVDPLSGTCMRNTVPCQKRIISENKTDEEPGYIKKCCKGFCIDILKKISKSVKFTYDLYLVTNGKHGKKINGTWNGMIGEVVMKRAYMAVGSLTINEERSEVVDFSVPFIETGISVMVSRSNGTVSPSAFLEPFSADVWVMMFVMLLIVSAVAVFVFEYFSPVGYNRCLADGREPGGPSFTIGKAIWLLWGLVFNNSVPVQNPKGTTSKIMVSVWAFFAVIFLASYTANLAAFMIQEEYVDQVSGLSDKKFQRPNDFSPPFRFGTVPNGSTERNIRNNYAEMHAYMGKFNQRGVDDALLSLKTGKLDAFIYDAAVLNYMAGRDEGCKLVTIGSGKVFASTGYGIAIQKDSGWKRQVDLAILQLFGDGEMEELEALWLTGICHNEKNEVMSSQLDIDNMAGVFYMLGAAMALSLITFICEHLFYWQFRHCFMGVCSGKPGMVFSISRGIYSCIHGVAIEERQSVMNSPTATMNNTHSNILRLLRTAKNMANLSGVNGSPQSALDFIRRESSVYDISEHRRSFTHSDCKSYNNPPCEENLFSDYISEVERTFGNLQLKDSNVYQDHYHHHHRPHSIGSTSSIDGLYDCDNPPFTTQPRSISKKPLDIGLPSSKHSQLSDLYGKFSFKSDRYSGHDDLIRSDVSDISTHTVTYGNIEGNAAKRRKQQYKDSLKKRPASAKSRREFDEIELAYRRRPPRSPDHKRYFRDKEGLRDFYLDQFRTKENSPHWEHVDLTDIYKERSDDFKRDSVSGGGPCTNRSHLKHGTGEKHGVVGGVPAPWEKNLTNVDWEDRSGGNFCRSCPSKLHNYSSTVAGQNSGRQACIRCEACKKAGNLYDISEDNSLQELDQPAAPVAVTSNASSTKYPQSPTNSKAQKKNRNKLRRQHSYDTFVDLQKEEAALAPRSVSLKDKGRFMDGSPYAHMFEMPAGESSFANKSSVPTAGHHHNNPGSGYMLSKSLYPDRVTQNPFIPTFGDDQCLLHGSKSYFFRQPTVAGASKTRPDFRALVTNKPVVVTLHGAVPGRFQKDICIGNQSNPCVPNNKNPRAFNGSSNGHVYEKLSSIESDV

[3] = target: GluN1/2A receptors with GluN1-R755A (Rattus norvegicus, UniProt P35439+Q00959, R755A); assay: TCN-201 inhibition, GluN1-R755A; type: cell-based
[4] = target: GluN1/2A receptors with GluN1-Y535F (Rattus norvegicus, UniProt P35439+Q00959, Y535F); assay: Schild analysis of TCN-201, GluN1-Y535F; type: cell-based
[5] = target: GluN1/2A receptors with GluN2A-V783F (Rattus norvegicus, UniProt P35439+Q00959, V783F); assay: Glycine concentration-response and Schild analysis, GluN2A-V783F; type: cell-based; conditions: read-out: binding affinity KB
[6] = target: GluN1/2A receptors with GluN2A-V783A (Rattus norvegicus, UniProt P35439+Q00959, V783A); assay: Glycine concentration-response and Schild analysis, GluN2A-V783A; type: cell-based
[7] = target: GluN1/2A receptors with GluN1-F754L (Rattus norvegicus, UniProt P35439+Q00959, F754L); assay: Glycine concentration-response and Schild analysis, GluN1-F754L; type: cell-based
[8] = target: GluN1/2A receptors with GluN1-F754V (Rattus norvegicus, UniProt P35439+Q00959, F754V); assay: Glycine concentration-response and Schild analysis, GluN1-F754V; type: cell-based
GluN1/2A receptors with GluN1-F754V, sequence (Q00959 20-1464 limits assumed, other chains not shown): as the sequence (Q00959 20-1464 limits assumed, other chains not shown) above

[9] = target: GluN1/2A receptors with GluN1-Y535L (Rattus norvegicus, UniProt P35439+Q00959, Y535L); assay: Schild analysis of TCN-201, GluN1-Y535L; type: cell-based
[10] = target: wild type GluN1/2A receptors (Rattus norvegicus, UniProt P35439+Q00959); type: cell-based

| Structure (SMILES) | effect on glutamate-activated responses from crosslinked GluN1-CC/2A [1] | maximal concentration used, limited by compound solubility [2] [µM] | selectivity for GluN1/2A over GluN1/2B-D (GluN1/2B-D receptors) | increase of IC50 in 30 μM glycine compared to 3 μM glycine (GluN1/2A receptors; GluN1/2A) [fold] | maximal inhibition (GluN1/2A receptors; GluN1/2A, 300 μM glycine) | extent of inhibition of GluN1/2A (GluN1/2A receptors) | IC50 (GluN1/2A receptors) [nM] | further results |
| --- | --- | --- | --- | --- | --- | --- | --- | --- |
| O=C(O)c1cc(O)c2ccc(Cl)cc2n1 [7CKA] | not sensitive |  |  |  |  |  |  |  |
| Cc1ncc(CNC(=O)c2cnc(CNS(=O)(=O)c3ccc(F)c(Cl)c3)cn2)s1 [MPX-004] | significant potentiation | 10 | strict selectivity | 3.8 | 71% ± 4% | nearly complete inhibition | ~200 |  |
| Cc1ncc(CNC(=O)c2cnc(CNS(=O)(=O)c3ccc(F)c(F)c3)c(C)n2)s1 [MPX-007] |  | 30 |  | 3.2 | 95% ± 1% | nearly complete inhibition | ~200 | concentrations at which GluN1/2B-D receptors are inhibited (GluN1/2B-D receptors): 10 to 30 µM; glycine-sensitivity of inhibition of GluN1/2B (GluN1/2B receptors): sensitive to the glycine concentration; inhibition of GluN1/2B receptors (GluN1/2B receptors; 30 μM compound, 3 μM glycine, n = 6): 48% ± 3% |
| O=C(NNC(=O)c1ccc(CNS(=O)(=O)c2ccc(F)c(Cl)c2)cc1)c1ccccc1 [TCN-201] |  | 5 | strict selectivity |  |  | nearly complete inhibition | ~200 | inhibition [3]: abolished; allosteric constant compared to wild type [4]: virtually unchanged; binding affinity KB compared to wild type [4]: virtually unchanged; Kb [5]: 186 nM; allosteric constant α [6]: 0.001; allosteric constant [7]: 0.018; binding affinity KB compared to wild type [7]: little to no change; inhibition in 300 μM glycine (GluN1/2A receptors; GluN1/2A, 300 μM glycine): markedly diminished; allosteric constant [8]: 0.086; maximal increase of glycine EC50 (1/α) [8]: 12 fold; Kb ([8]; read-out: binding affinity KB): 131 nM; allosteric constant [9]: 0.016; maximal increase of glycine EC50 (1/α) [10]: 143 fold; allosteric constant α ([10]; Schild analysis): 0.007 |
